Source: patent US11407738B2 (Achillion Pharmaceuticals, Inc., priority 2015, dated 2022)
Values belong to the compound of their own block, whether it stands above or below them.

Target: Human Factor D (Homo sapiens (Human), UniProt P00746)
Assay: Human Factor D assay
Format: biochemical
Conditions: Factor D inhibition, substrate Z-L-Lys-SBzl
In short: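 Serum-purified human factor D (80 nM final) preincubated 5 min at room temperature with test compound in 50 mM Tris, 1M NaCl, pH 7.5. Z-L-Lys-SBzl substrate and DTNB then added, each at 100 μM final. IC50 from nonlinear regression of reaction rate against compound concentration.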

Sequence of Human Factor D (P00746 26-253): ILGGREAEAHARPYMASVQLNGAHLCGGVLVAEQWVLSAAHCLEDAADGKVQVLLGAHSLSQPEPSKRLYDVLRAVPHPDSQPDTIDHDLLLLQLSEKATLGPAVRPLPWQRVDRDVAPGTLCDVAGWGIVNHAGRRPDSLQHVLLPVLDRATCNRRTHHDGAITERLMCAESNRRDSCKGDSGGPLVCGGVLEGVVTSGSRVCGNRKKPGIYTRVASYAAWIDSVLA

Compound: CC(=O)c1nn(CC(=O)N2C[C@H](F)C[C@H]2c2nnc(CCCC(F)(F)F)[nH]2)c2ccc(-c3cnc(C)nc3)cc12 [Compound 584, 2-(3-Acetyl-5-(2-methylpyrimidin-5-yl)-1H-indazol-1-yl)-1-((2S,4R)-4-fluoro-2-(5-(4,4,4-trifluorobutyl)-4H-1,2,4-triazol-3-yl)pyrrolidin-1-yl)ethan-1-one]
- IC50 (Table 4): 1 to 10 µM

Compound: CNS(=O)(=O)c1ccc(Cl)c(-c2cccc(NC(=O)[C@@H]3C[C@@H](F)CN3C(=O)Cn3nc(C(C)=O)c4cc(-c5cnc(C)nc5)ccc43)c2F)c1 [Compound 529, (2S,4R)-1-(2-(3-acetyl-5-(2-methylpyrimidin-5-yl)-1H-indazol-1-yl)acetyl)-N-(2′-chloro-2-fluoro-5′-(N-methylsulfamoyl)bi-phenyl-3-yl)-4-fluoropyrrolidine-2-carboxamide]
- IC50 (Table 3): < 1 µM

Compound: Cc1cccc(NC(=O)[C@@H]2CCC(F)CCN2C(=O)Cn2cc(C(N)=O)c3cc(-c4cnc5n4CCCC5)ccc32)n1 (stereo partly drawn) [Compound 616, 1-(2-((2S)-5-Fluoro-2-((6-methylpyridin-2-yl)carbamoyl)azepan-1-yl)-2-oxoethyl)-5-(5,6,7,8-tetrahydroimidazo[1,2-a]pyridin-3-yl)-1H-indole-3-carboxamide]
- IC50 (Table 4): > 10 µM

Compound: CC[C@H](NC(=O)Cn1nc(C(C)=O)c2cc(-c3cnc(C)nc3)ccc21)C(=O)Nc1cccc(Br)n1 [Compound 600]
- IC50 (Table 4): < 1 µM

Compound: CC(=O)c1nn(CC(=O)N2C[C@H](F)C[C@H]2C(=O)Nc2nc(Br)ccc2C)c2ccc(-c3cnc(N)nc3)cc12 [Compound 553, (2S,4R)-1-(2-(3-acetyl-5-(2-aminopyrimidin-5-yl)-1H-indazol-1-yl)acetyl)-N-(6-bromo-3-methylpyridin-2-yl)-4-fluoropyrrolidine-2-carboxamide]
- IC50 (Table 4): < 1 µM

Compound: CC(=O)c1nn(CC(=O)N2C[C@H](F)C[C@H]2CC(=O)Nc2cccc(Cl)c2F)c2ccc(-c3cnc(C)nc3)cc12 [Compound 576, 2-((2R,4R)-1-(2-(3-Acetyl-5-(2-methylpyrimidin-5-yl)-1H-indazol-1-yl)acetyl)-4-fluoropyrrolidin-2-yl)-N-(3-chloro-2-fluorophenyl)acetamide]
- IC50 (Table 4): > 10 µM

Compound: CC(=O)c1nn(CC(=O)N2C[C@H](F)C[C@H]2C[S+]([O-])c2cccc(Br)n2)c2ccc(-c3cnc(C)nc3)cc12 (stereo partly drawn) [Compound 604, 2-(3-Acetyl-5-(2-methylpyrimidin-5-yl)-1H-indazol-1-yl)-1-((2S,4R)-2-(((6-bromopyridin-2-yl)sulfinyl)methyl)-4-fluoropyrrolidin-1-yl)ethan-1-one]
- IC50 (Table 4): 1 to 10 µM

Compound: Cc1cccc(NC(=O)[C@@H]2CCC(F)CCN2C(=O)Cn2cc(C(N)=O)c3cc(-c4cnc5c(c4)CCC5)ccc32)n1 (stereo partly drawn) [Compound 593, 5-(6,7-Dihydro-5H-cyclopenta[b]pyridin-3-yl)-1-(2-((2S)-5-fluoro-2-((6-methylpyridin-2-yl)carbamoyl)azepan-1-yl)-2-oxoethyl)-1H-indole-3-carboxamide]
- IC50 (Table 4): > 10 µM

Compound: CC(=O)c1nn(CC(=O)N2C[C@H](F)C[C@H]2C(=O)Nc2cccc(-c3ccc4scnc4c3)c2F)c2ccc(-c3cnc4cc(C)nn4c3)cc12 [Compound 519, (2S,4R)-1-(2-(3-acetyl-5-(2-methylpyrazolo[1,5-a]pyrimidin-6-yl)-1H-indazol-1-yl)acetyl)-N-(3-(benzo[d]thiazol-5-yl)-2-fluorophenyl)-4-fluoropyrrolidine-2-carboxamide]
- IC50 (Table 3): < 1 µM

Compound: Cc1cccc(NC(=O)[C@@H]2CCC(F)CCN2C(=O)Cn2cc(C(N)=O)c3cc(-c4cnn5c4CCC5)ccc32)n1 (stereo partly drawn) [Compound 617, 5-(5,6-Dihydro-4H-pyrrolo[1,2-b]pyrazol-3-yl)-1-(2-((2S)-5-fluoro-2-((6-methylpyridin-2-yl)carbamoyl)azepan-1-yl)-2-oxoethyl)-1H-indole-3-carboxamide]
- IC50 (Table 4): > 10 µM

Compound: CC(=O)c1cn(CC(=O)N2C[C@H](F)C[C@H]2C(=O)Nc2cccc(-c3ccccc3Cl)c2F)c2ccc(-c3cnc(O[C@@H]4CO[C@H]5[C@@H]4OC[C@H]5O)nc3)cc12 [Compound 501, (2S,4R)-1-(2-(3-Acetyl-5-(2-((3R,3aR,6R,6aR)-6-hydroxyhexahydrofuro[3,2-b]furan-3-yloxy)pyrimidin-5-yl)-1H-indol-1-yl)acetyl)-N-(2′-chloro-2-fluorobiphenyl-3-yl)-4-fluoropyrrolidine-2-carboxamide]
- IC50 (Table 3): < 1 µM

Compound: CC[C@H](C(=O)Nc1cccc(Br)n1)N(C)C(=O)Cn1nc(C(C)=O)c2cc(-c3cnc(C)nc3)ccc21 [Compound 597, (R)-2-(2-(3-acetyl-5-(2-methylpyrimidin-5-yl)-1H-indazol-1-yl)-N-methylacetamido)-N-(6-bromopyridin-2-yl)butanamide]
- IC50 (Table 4): > 10 µM

Compound: Cc1cccc(NC(=O)[C@@H]2CC=CCN2C(=O)Cn2cc(C(N)=O)c3cc(-c4cnc(C)nc4)ccc32)n1 [Compound 566, (S)-1-(2-(2-((6-Methylpyridin-2-yl)carbamoyl)-3,6-dihydropyridin-(2H)-yl)-2-oxoethyl)-5-(2-methylpyrimidin-5-yl)-1H-indole-3-carboxamide]
- IC50 (Table 4): > 10 µM

Compound: CC(=O)c1nn(CC(=O)N2CCC[C@@H](CNC(=O)c3ncc(Br)s3)C2)c2ccc(-c3cnc(C)nc3)cc12 [Compound 548, (S)—N-((1-(2-(3-Acetyl-5-(2-methylpyrimidin-5-yl)-1H-indazol-1-yl)acetyl)piperidin-3-yl)methyl)-5-bromothiazole-2-carboxamide]
- IC50 (Table 4): > 10 µM

Compound: CC(=O)c1nn(CC(=O)N2C[C@H](F)C[C@H]2c2nc3nc(Br)ccc3[nH]2)c2ccc(-c3cnc(C)nc3)cc12 [Compound 564, 2-(3-Acetyl-5-(2-methylpyrimidin-5-yl)-1H-indazol-1-yl)-1-((2S,4R)-2-(5-bromo-1H-imidazo[4,5-b]pyridin-2-yl)-4-fluoropyrrolidin-1-yl)ethan-1-one]
- IC50 (Table 4): > 10 µM

Compound: CC(=O)c1nn(CC(=O)N2C[C@H](F)C[C@H]2C(=O)Nc2cccc(-c3cc(S(=O)(=O)NC4CC4)ccc3Cl)c2F)c2ccc(-c3cnc(C)nc3)cc12 [Compound 521, (2S,4R)-1-(2-(3-acetyl-5-(2-methylpyrimidin-5-yl)-1H-indazol-1-yl)acetyl)-N-(2′-chloro-5′-(N-cyclopropyl-sulfamoyl)-2-fluorobiphenyl-3-yl)-4-fluoropyrrolidine-2-carboxamide]
- IC50 (Table 3): < 1 µM

Compound: COc1ccc(-c2ccc3c(c2)c(C(N)=O)cn3CC(=O)N2CCC(F)CC[C@H]2C(=O)Nc2cccc(C)n2)cn1 (stereo partly drawn) [Compound 596, 1-(2-((2S)-5-Fluoro-2-((6-methylpyridin-2-yl)carbamoyl)azepan-1-yl)-2-oxoethyl)-5-(6-methoxypyridin-3-yl)-1H-indole-3-carboxamide]
- IC50 (Table 4): > 10 µM

- IC50 (Table 4): > 10 µM
Compound: Cc1cccc(NC(=O)[C@@H]2CCC(F)CCN2C(=O)Cn2cc(C(N)=O)c3cc(-c4cnc5ncccn45)ccc32)n1 (stereo partly drawn) [Compound 615, 1-(2-((2S)-5-Fluoro-2-((6-methylpyridin-2-yl)carbamoyl)azepan-1-yl)-2-oxoethyl)-5-(imidazo[1,2-a]pyrimidin-3-yl)-1H-indole-3-carboxamide]

Compound: CC(=O)c1cn(CC(=O)N(C)[C@H](C(=O)Nc2cccc(-c3ccccc3Cl)c2F)[C@@H](C)O)c2ccc(-c3cnc(C)nc3)cc12 [Compound 506, (2S,3R)-2-(2-(3-Acetyl-5-(2-methylpyrimidin-5-yl)-1H-indol-1-yl)-N-methylacetamido)-N-(2′-chloro-2-fluorobiphenyl-3-yl)-3-hydroxybutanamide]
- IC50 (Table 3): 1 to 10 µM

Compound: CC(=O)c1nn(CC(=O)N2C[C@H](F)C[C@H]2CC(=O)NO)c2ccc(-c3cnc(C)nc3)cc12 [Compound 592, 2-((2R,4R)-1-(2-(3-Acetyl-5-(2-methylpyrimidin-5-yl)-1H-indazol-1-yl)acetyl)-4-fluoropyrrolidin-2-yl)-N-hydroxyacetamide]
- IC50 (Table 4): > 10 µM

Compound: CC(=O)c1nn(CC(=O)N2C[C@H](F)C[C@H]2C(=O)Nc2cccc(S(F)(F)(F)(F)F)c2)c2ccc(-c3cnc(C)nc3)cc12 [Compound 504, (2S,4R)-1-(2-(3-Acetyl-5-(2-methylpyrimidin-5-yl)-1H-indazol-1-yl)acetyl)-4-fluoro-N-(3-(pentafluoro-λ^6-sulfanyl)phenyl)pyrrolidine-2-carboxamide]
- IC50 (Table 3): < 1 µM
